Source: patent publication US9353088B2, “Crystalline pharmaceutical and methods of preparation and use thereof” (SARcode Bioscience Inc., priority 2009, dated 2016)
“And” between values parts separate entries of the source, which are not always exact repeats. Equal entries are not always repeated. Where two headings read alike, the source gives them in different places.

How the values were obtained:
[1] = rabbit, in vivo
[2] = Pilot mini-pig dermal study; assay type: in vivo, mini-pigs; conditions: DMSO, gel, ointment, lotion at 1%, dermal TID for 7 days
[3] = Plasma PK after single topical ocular instillation; conditions: post-dose
[4] = tested on: Keratoconjunctivitis Sicca (KCS); assay: Canine keratoconjunctivitis sicca (KCS) study; assay type: in vivo, dog; conditions: for Schirmer Tear Test (OS), Mean: Dog #7 not included
Description: If dogs had been treated with topical CsA or tacrolimus in the previous six months, they were not enrolled. […] Animals were subjected to an ocular examination once during the initial visit and during five visits over sixteen weeks of the study (Weeks, 2, 4, 8, 12 and 16). The last OE was approximately four weeks after the last dose of the compound of Formula I and after one month of CsA treatment. The adnexa and anterior portions of both eyes were examined using an indirect opthalmoscope. The eyes were dilated with a mydriatic when applicable, to allow evaluation of the lens and fundus, including the retina. An evaluation using a modified McDonald-Shaddock scoring system was performed in conjunction with the slitlamp ocular examinations at each interval. Tears were measured using STT strips during the initial visit and each of the five follow-up visits on Weeks 2, 4, 8, 12 and 16. One strip of STT paper was used for each eye for each interval. […] The length, in mm, of wetting below the notch of the paper was recorded. Fluorescein and rose bengal staining was performed at the each of the initial and follow up examinations. Intraocular pressure measurements (IOPs) were performed using a Tono-Pet Vet® in conjunction with each of the OEs. Digital ocular images were taken before and after staining (with fluorescein and rose bengal) during each of the OEs. Conjunctival biopsies were taken at the initial (pretreatment) visit and the Week 12 visit. The second biopsy was taken more lateral (approx. 1 mm) to the initial biopsy. Following appropriate preparation a small conjunctival biopsy was taken from the ventral fornix of each eye.

[5] = Tear PK after single topical ocular instillation; conditions: single topical ocular instillation, 0.1, 1.0 or 3.0%
[6] = Single dose ocular and IV ADME with [14C]-compound, whole body autoradiography; assay type: in vivo, rats; conditions: for fecal excretion of administered radioactivity: 0 to 168 hours postdose; for Concentration, Aqueous humor / Concentration, Conjunctiva (bulbar) / Concentration, Conjunctiva (palpebral) / Concentration, Cornea / Concentration, Iris-ciliary body / Concentration, Lens / Concentration, Optic Nerve / Concentration, Retina and Choroid (with RPE) / Concentration, Sclera / Concentration, Vitreous Humor: ocular dosing
[7] = Respiratory function, single IV bolus, head-out plethysmograph; assay type: in vivo, rats; conditions: any dose
[8] = Single dose ocular tolerance; conditions: single dose ocular tolerance (10%)
[9] = CNS effects, single bolus IV injection; assay type: in vivo, rats; conditions: 10.0 mg/kg IV, 1 minute to 6 hours postdose, 2/6 animals
Description: No effect on any other parameters was observed.

[10] = 13-week ocular toxicity study with 4-week recovery; conditions: 13-week ocular (3%)
[11] = Phase 1 clinical trial of Ophthalmic Solution, safety and tolerability; assay type: in vivo, human
Description: The objectives of the trial were to measure safety and tolerability, and pharmacokinetics in tear and plasma. The dosing schedule (OU; Oculus Uterque (each eye or both eyes)) was divided into 3 periods, each separated by a 72-hour wash out interval: once/day×1 day (drug one eye; placebo fellow eye), twice/day×10 days, and thrice/day×10 days, 14-day observation. Slit lamp examination of the eye, BCVA (Best Corrected Visual Acuity), STTs (Schirmer Tear Test), TBUT (Tear Break-Up Time), IOP (Intraocular pressure) were assessed at screening and the beginning and end of each period. For each cohort, masked safety data was reviewed by a Safety Committee prior to allowing dose escalation of the next cohort. A total of 2856 doses (102 drops/subject) were administered over 1148 total subject study days (41 study days/subject) in 56 eyes. All subjects in all cohorts completed the study, and no study drug doses were missed.

[12] = dog, in vivo
[13] = Week 1 (initial visit), individual dogs, Dog ID 1-7 = r5-r11
[14] = Week 2, individual dogs, 1% solution TID, listed as compound of Formula I
[15] = Week 4, individual dogs, 1% solution TID, listed as compound of Formula I
[16] = Week 8, individual dogs, 1% solution TID, listed as compound of Formula I
[17] = Week 12, individual dogs, 1% solution TID, listed as compound of Formula I
[18] = Week 16, individual dogs, four weeks after last dose and after one month of CsA
[19] = Weeks 1-12, individual dogs 1-7 = r6-r12
[20] = during the 12-week treatment period
[21] = 0.5 hour, topical ocular 1 mg/eye
[22] = 0.5 hour, topical ocular 1 mg/eye, above upper limit of quantification
[23] = 8 hours postdose, topical ocular 1 mg/eye
[24] = 24 hours postdose, topical ocular 1 mg/eye

Q: What does the source list for CS(=O)(=O)c1cccc(C[C@H](NC(=O)c2c(Cl)cc3c(c2Cl)CCN(C(=O)c2ccc4ccoc4c2)C3)C(=O)O)c1 [Compound of Formula I]?
A: level in vitreous fluid [1]: not detected; toxicity [2]: No toxicity was reported; time of maximum plasma concentration [3]: about 0.25 hrs; Schirmer Tear Test (OS) [4]: 9 mm; Schirmer Tear Test (OS) ([4]; 672 h): 17 mm; Schirmer Tear Test (OD), Mean ([4]; Week 1 (initial visit), Dog #1 not included): 5.5 mm; Schirmer Tear Test (OS), Mean ([4]; Week 1 (initial visit)): 4.2 mm; Schirmer Tear Test (OD) [4, 13]: 8 mm (2×) and 6 mm (2×) and 15 mm and 0 mm and 5 mm; Schirmer Tear Test (OS) [4, 13]: 18 mm and 0 mm (3×) and 9 mm and 7 mm; Schirmer Tear Test (OD), Mean ([4]; Week 2, Dog #1 not included): 7.8 mm; Schirmer Tear Test (OS), Mean ([4]; Week 2): 4.8 mm; Schirmer Tear Test (OS) ([4]; Week 2, individual dogs, 1% solution TID): 4 mm; Schirmer Tear Test (OD) [4, 14]: 10 mm and 2 mm (2×) and 18 mm and 11 mm (3×); Schirmer Tear Test (OS) [4, 14]: 0 mm (2×) and 14 mm and 3 mm and 8 mm; Schirmer Tear Test (OD), Mean ([4]; Week 4, Dog #1 not included): 7.0 mm; Schirmer Tear Test (OS), Mean ([4]; Week 4): 6.7 mm; Schirmer Tear Test (OS) ([4]; Week 4, individual dogs, 1% solution TID): 14 mm; Schirmer Tear Test (OD) [4, 15]: 15 mm and 2 mm and 12 mm and 0 mm and 5 mm and 10 mm (2×); Schirmer Tear Test (OS) [4, 15]: 0 mm (2×) and 7 mm and 5 mm and 14 mm; Schirmer Tear Test (OD), Mean ([4]; Week 8, Dog #1 not included): 8.5 mm; Schirmer Tear Test (OS), Mean ([4]; Week 8): 6.5 mm; Schirmer Tear Test (OS) ([4]; Week 8, individual dogs, 1% solution TID): 8 mm; Schirmer Tear Test (OD) [4, 16]: 17 mm and 1 mm and 16 mm and 8 mm and 7 mm (2×) and 11 mm; Schirmer Tear Test (OS) [4, 16]: 19 mm and 0 mm and 2 mm and 17 mm and 6 mm and 8 mm; Schirmer Tear Test (OD), Mean ([4]; Week 12, Dog #1 not included): 8.8 mm; Schirmer Tear Test (OS), Mean ([4]; Week 12): 8.7 mm; Schirmer Tear Test (OS) ([4]; Week 12, individual dogs, 1% solution TID): 8 mm; Schirmer Tear Test (OD) [4, 17]: 16 mm and 0 mm and 13 mm (2×) and 8 mm and 7 mm and 9 mm; Schirmer Tear Test (OS) [4, 17]: 18 mm and 3 mm and 7 mm and 15 mm and 4 mm and 8 mm; Schirmer Tear Test (OD), Mean ([4]; Week 16, after one month of CsA, Dog #1 and anomalous Dog #5 value not included): 11.7 mm; Schirmer Tear Test (OS), Mean ([4]; Week 16, after one month of CsA): 11.0 mm; Schirmer Tear Test (OD) [4, 18]: 18 mm and 12 mm (2×) and 8 mm (3×) and 22** mm; Schirmer Tear Test (OS) [4, 18]: 18 mm and 3 mm and 5 mm and 16 mm and 7 mm and 19 mm; Maximum-Minimum analysis, Total OD ([4]; Weeks 1-12): Total = 28; Maximum-Minimum analysis, Total OS ([4]; Weeks 1-12): Total = 44; Maximum-Minimum analysis, maximal change in STT, OD [4, 19]: 3 and 8 (3×) and −4 and 5; Maximum-Minimum analysis, maximal change in STT, OS [4, 19]: 7 (2×) and 11 and 3 and 10 and 6; average STT improvement, all 12 eyes [4, 20]: 4 mm; average improvement in OD (right eye) STT [4, 20]: 3.3 mm; average improvement in OS (left eye) STT [4, 20]: 4.5 mm; Histopathological evaluation of conjunctival biopsies before and after treatment ([4]; pretreatment vs Week 12): attenuation of lymphocyte accumulation; Schirmer test scores over pretreatment ([4]; week 12): Significant improvement; time to maximal mean tear concentration [5]: ≤ 30 min; radioactivity concentration, eye [6, 21]: 18100 ng equivalents [^14C]-compound of Formula I/g; radioactivity concentration, kidney [6, 21]: 151 ng equivalents [^14C]-compound of Formula I/g; radioactivity concentration, liver [6, 21]: 272 ng equivalents compound of Formula I/g; radioactivity concentration, uveal tract [6, 21]: 9330 ng equivalents [^14C]-compound of Formula I/g; radioactivity concentration, esophageal contents ([6]; 0.5 hour, topical ocular 1 mg/eye, male Sprague Dawley, above upper limit of quantification): 399000 ng equivalents [^14C]-compound of Formula I/g; radioactivity concentration, nasal turbinates [6, 22]: 352000 ng equivalents [^14C]-compound of Formula I/g; radioactivity concentration, small intestinal contents [6, 22]: 349000 ng equivalents [^14C]-compound of Formula I/g; radioactivity concentration, cecum contents [6, 23]: 57600 ng equivalents [^14C]-compound of Formula I/g; radioactivity concentration, large intestinal contents [6, 23]: 133000 ng equivalents [^14C]-compound of Formula I/g; radioactivity concentration, uveal tract ([6]; 12 hours postdose, topical ocular 1 mg/eye): 610 ng equivalents [^14C]-compound of Formula I/g; radioactivity concentration, cecum contents [6, 24]: 5870 ng equivalents [^14C]-compound of Formula I/g; radioactivity concentration, large intestinal contents [6, 24]: 18000 ng equivalents [^14C]-compound of Formula I/g; fecal excretion of administered radioactivity ([6]; IV administration 10 mg/kg): ~95%; decline of radioactivity concentration, esophageal contents ([6]; at 2 hours postdose): ~100 fold; decline of radioactivity concentration, esophagus ([6]; at 2 hours postdose): approximately 50 fold; levels in conjunctiva/cornea ([6]; for 16 hrs, rat): > 100 nM; fecal excretion of administered radioactivity ([6]; ocular administration 1 mg/eye): approximately 60%; Concentration, Aqueous humor ([6]; 0.5 hour after administration): 1770 ng Equivalents [^14C]-compound of Formula I/g tissue; Concentration, Conjunctiva (bulbar) ([6]; 0.5 hour after administration): 31500 ng Equivalents [^14C]-compound of Formula I/g tissue; Concentration, Conjunctiva (palpebral) ([6]; 0.5 hour after administration): 26300 ng Equivalents [^14C]-compound of Formula I/g tissue; Concentration, Cornea ([6]; 0.5 hour after administration): 17150 ng Equivalents [^14C]-compound of Formula I/g tissue; Concentration, Iris-ciliary body ([6]; 0.5 hour after administration): 17550 ng Equivalents [^14C]-compound of Formula I/g tissue; Concentration, Lens ([6]; 0.5 hour after administration): 38.8 ng Equivalents [^14C]-compound of Formula I/g tissue; Concentration, Optic Nerve ([6]; 0.5 hour after administration): 796 ng Equivalents [^14C]-compound of Formula I/g tissue; Concentration, Retina and Choroid (with RPE) ([6]; 0.5 hour after administration): 510 ng Equivalents [^14C]-compound of Formula I/g tissue; Concentration, Sclera ([6]; 0.5 hour after administration): 2750 ng Equivalents [^14C]-compound of Formula I/g tissue; Concentration, Vitreous Humor ([6]; 0.5 hour after administration): 1330 ng Equivalents [^14C]-compound of Formula I/g tissue; Concentration, Aqueous humor ([6]; 4.0 hours after administration): 116 ng Equivalents [^14C]-compound of Formula I/g tissue; Concentration, Conjunctiva (bulbar) ([6]; 4.0 hours after administration): 4480 ng Equivalents [^14C]-compound of Formula I/g tissue; Concentration, Conjunctiva (palpebral) ([6]; 4.0 hours after administration): 21830 ng Equivalents [^14C]-compound of Formula I/g tissue; Concentration, Cornea ([6]; 4.0 hours after administration): 1346 ng Equivalents [^14C]-compound of Formula I/g tissue; Concentration, Iris-ciliary body ([6]; 4.0 hours after administration): 500 ng Equivalents [^14C]-compound of Formula I/g tissue; Concentration, Lens ([6]; 4.0 hours after administration): 9.69 ng Equivalents [^14C]-compound of Formula I/g tissue; Concentration, Optic Nerve ([6]; 4.0 hours after administration): 0 ng Equivalents [^14C]-compound of Formula I/g tissue; Concentration, Retina and Choroid (with RPE) ([6]; 4.0 hours after administration): 46.7 ng Equivalents [^14C]-compound of Formula I/g tissue; Concentration, Sclera ([6]; 4.0 hours after administration): 387 ng Equivalents [^14C]-compound of Formula I/g tissue; Concentration, Vitreous Humor ([6]; 4.0 hours after administration): 183 ng Equivalents [^14C]-compound of Formula I/g tissue; Urinary excretion of administered radioactivity ([6]; ocular or IV): up to 2%; melanin binding ([6]; tissue distribution in pigmented vs albino rats): did not preferentially bind to melanin; metabolites in pooled plasma, urine and fecal homogenates ([6]; up to 168 hrs after topical ocular or IV dose): no metabolites were isolated; respiratory function (tidal volume, respiration rate, minute volume) [7]: No adverse changes in respiratory function or adverse effects; NOAEL [8]: 3.5 mg/eye/3× per day; CNS observations [9]: Transient miosis; NOAEL [10]: 1.05 mg/eye/3× per day; adverse events considered related to administration ([11]; any dose strength (0.1-5%) or dose regimen, healthy adults): No deaths, discontinuations, serious or severe ocular or non-ocular AEs; total lymphocyte, CD3, CD4, CD8 cell counts ([11]; throughout the trial): no evidence of lymphocyte or neutrophil suppression; overall safety and tolerability ([11]; topical ocular instillation, dose strengths up to 5% TID): safe and well-tolerated; level in vitreous fluid [12]: not detected
